These compounds were tested against TBK1 (Homo sapiens (Human), UniProt Q9UHD2) (assay: TBK1 low ATP kinase assay (in vitro assay 1)). Conditions: in vitro assay 1, read-out: TBK1 low ATP kinase assay IC50.
Type: biochemical

Chain of TBK1 (Q9UHD2 whole entry): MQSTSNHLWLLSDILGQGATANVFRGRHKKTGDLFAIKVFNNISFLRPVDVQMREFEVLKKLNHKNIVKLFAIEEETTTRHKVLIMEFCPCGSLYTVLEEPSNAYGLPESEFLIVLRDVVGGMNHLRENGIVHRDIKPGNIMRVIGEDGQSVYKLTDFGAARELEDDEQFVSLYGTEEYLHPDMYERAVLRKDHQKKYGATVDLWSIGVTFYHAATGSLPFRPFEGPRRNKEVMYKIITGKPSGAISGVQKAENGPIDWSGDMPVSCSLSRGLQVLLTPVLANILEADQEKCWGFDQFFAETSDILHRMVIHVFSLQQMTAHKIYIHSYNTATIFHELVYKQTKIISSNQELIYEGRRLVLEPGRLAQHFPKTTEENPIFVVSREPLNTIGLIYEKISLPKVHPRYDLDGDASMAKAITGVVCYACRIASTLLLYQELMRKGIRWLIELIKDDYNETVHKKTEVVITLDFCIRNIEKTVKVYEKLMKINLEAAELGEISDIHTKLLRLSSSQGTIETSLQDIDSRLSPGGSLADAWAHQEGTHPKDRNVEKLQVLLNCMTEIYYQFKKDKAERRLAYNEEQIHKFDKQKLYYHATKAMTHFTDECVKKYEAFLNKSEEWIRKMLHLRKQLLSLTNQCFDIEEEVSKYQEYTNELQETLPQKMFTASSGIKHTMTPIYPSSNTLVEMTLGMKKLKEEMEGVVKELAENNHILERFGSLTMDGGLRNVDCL

In order of rising IC50:
1. O=C(C1CC1)N1CCN(Cc2ccnc(Nc3nc4ccc(-c5cc(OCC6CC6)ncn5)cc4[nH]3)c2)CC1 [Example 80.03, cyclopropyl(4-{[2-({6-[6-(cyclopropylmethoxy)pyrimidin-4-yl]-1H-benzimidazol-2-yl}amino)pyridin-4-yl]methyl}piperazin-1-yl)methanone]  0.0029 µM
2. COc1c(C)ncnc1-c1ccc2nc(Nc3cc(C(C)N4CCN(C(=O)C5(C(F)(F)F)CC5)CC4)ccn3)[nH]c2c1 (stereo not shown) [Example 83.05, {4-[(1R or IS)-1-(2-{[6-(5-methoxy-6-methylpyrimidin-4-yl)-1H-benzimidazol-2-yl]amino}pyridin-4-yl)ethyl]piperazin-1-yl}[1-(trifluoromethyl)cyclopropyl]methanone]  0.0029 µM
3. O=C(CC(F)(F)F)N1CCN(Cc2ccnc(Nc3nc4ccc(-c5cc(C6CC6)ncn5)cc4[nH]3)c2)CC1 [Example 76.01, 1-{4-[(2-{[6-(6-cyclopropylpyrimidin-4-yl)-1H-benzimidazol-2-yl]amino}pyridin-4-yl)methyl]piperazin-1-yl}-3,3,3-trifluoropropan-1-one]  0.0032 µM
4. COCc1cc(-c2ccc3nc(Nc4cc(CN5CCN(C(=O)C6(C(F)(F)F)CC6)CC5)ccn4)[nH]c3c2)ncn1 [Example 79.03, (4-{[2-({6-[6-(methoxymethyl)pyrimidin-4-yl]-1H-benzimidazol-2-yl}amino)pyridin-4-yl]methyl}piperazin-1-yl)[1-(trifluoromethyl)cyclopropyl]methanone]  0.0033 µM
5. O=C(CC(F)(F)F)N1CCN(Cc2ccnc(Nc3nc4ccc(-c5ccnc(OCC6CC6)n5)cc4[nH]3)c2)CC1 [Example 62.01.03, 1-(4-{[2-({6-[2-(cyclopropylmethoxy)pyrimidin-4-yl]-1H-benzimidazol-2-yl}amino)pyridin-4-yl]methyl}piperazin-1-yl)-3,3,3-trifluoropropan-1-one]  0.00338 µM
6. CC(C)(C)OC(=O)N1CCN(Cc2ccnc(Nc3nc4ccc(-c5cc(NC6CC6)ncn5)cc4[nH]3)c2)CC1 [Example 82.01, tert-butyl 4-{[2-({6-[6-(cyclopropylamino)pyrimidin-4-yl]-1H-benzimidazol-2-yl}amino)pyridin-4-yl]methyl}piperazine-1-carboxylate]  0.0036 µM
7. O=C(CC(F)(F)F)N1CCN(Cc2ccnc(Nc3nc4ccc(-c5cc(OCC6CC6)ncn5)cc4[nH]3)c2)CC1 [Example 80.02, 1-(4-{[2-({6-[6-(cyclopropylmethoxy)pyrimidin-4-yl]-1H-benzimidazol-2-yl}amino)pyridin-4-yl]methyl}piperazin-1-yl)-3,3,3-trifluoropropan-1-one]  0.0045 µM
8. COCc1cc(-c2ccc3nc(Nc4cc(CN5CCN(C(=O)C6CC6)CC5)ccn4)[nH]c3c2)ncn1 [Example 79.02, cyclopropyl(4-{[2-({6-[6-(methoxymethyl)pyrimidin-4-yl]-1H-benzimidazol-2-yl}amino)pyridin-4-yl]methyl}piperazin-1-yl)methanone]  0.0048 µM
9. O=C(C1CC1)N1CCN(Cc2ccnc(Nc3nc4ccc(-c5ccnc(OCC6CC6)n5)cc4[nH]3)c2)CC1 [Example 62.01.04, cyclopropyl(4-{[2-({6-[2-(cyclopropylmethoxy)pyrimidin-4-yl]-1H-benzimidazol-2-yl}amino)pyridin-4-yl]methyl}piperazin-1-yl)methanone]  0.00519 µM
10. COCCCNc1cc(-c2ccc3nc(Nc4cc(CN5CCN(C(=O)OC(C)(C)C)CC5)ccn4)[nH]c3c2)ncn1 [Example 90.01, tert-butyl 4-({2-[(6-{6-[(3-methoxypropyl)amino]pyrimidin-4-yl}-1H-benzimidazol-2-yl)amino]pyridin-4-yl}methyl)piperazine-1-carboxylate]  0.0057 µM
11. COCc1cc(-c2ccc3nc(Nc4cc(CN5CCN(C(=O)CC(F)(F)F)CC5)ccn4)[nH]c3c2)ncn1 [Example 79.01, 3,3,3-trifluoro-1-(4-{[2-({6-[6-(methoxymethyl)pyrimidin-4-yl]-1H-benzimidazol-2-yl}amino)pyridin-4-yl]methyl}piperazin-1-yl)propan-1-one]  0.0083 µM
12. N#Cc1cc(-c2ccc3nc(Nc4cc(CN5CCN(C(=O)CC(F)(F)F)CC5)ccn4)[nH]c3c2)ncn1 [Example 77.01, 6-{2-[(4-{[4-(3,3,3-trifluoropropanoyl)piperazin-1-yl]methyl}pyridin-2-yl)amino]-1H-benzimidazol-6-yl}pyrimidine-4-carbonitrile]  0.0092 µM
13. O=C(C1CC1)N1CCN(Cc2ccnc(Nc3nc4ccc(-c5cc(C6CC6)ncn5)cc4[nH]3)c2)CC1 [Example 76.02, cyclopropyl{4-[(2-{[6-(6-cyclopropylpyrimidin-4-yl)-1H-benzimidazol-2-yl]amino}pyridin-4-yl)methyl]piperazin-1-yl}methanone]  0.0094 µM
14. O=C(C1CCC1)N1CCN(Cc2ccnc(Nc3nc4ccc(-c5ccnc(OCC6CC6)n5)cc4[nH]3)c2)CC1 [Example 62.01.02, cyclobutyl(4-{[2-({6-[2-(cyclopropylmethoxy)pyrimidin-4-yl]-1H-benzimidazol-2-yl}amino)pyridin-4-yl]methyl}piperazin-1-yl)methanone]  0.00954 µM
15. CC(C)(C)OC(=O)N1CCN(Cc2ccnc(Nc3nc4ccc(-c5cc(NCCO)ncn5)cc4[nH]3)c2)CC1 [Example 81.01, tert-butyl 4-({2-[(6-{6-[(2-hydroxyethyl)amino]pyrimidin-4-yl}-1H-benzimidazol-2-yl)amino]pyridin-4-yl}methyl)piperazine-1-carboxylate]  0.013 µM
16. CC(C)c1cc(-c2ccc3nc(Nc4cc(CN5CCN(C(=O)C6CC6)CC5)ccn4)[nH]c3c2)ncn1 [Example 78.02, cyclopropyl(4-{[2-({6-[6-(propan-2-yl)pyrimidin-4-yl]-1H-benzimidazol-2-yl}amino)pyridin-4-yl]methyl}piperazin-1-yl)methanone]  0.015 µM
17. COc1c(C)ncnc1-c1ccc2nc(Nc3cc(CN4CCN(C(=O)CC(F)(F)F)CC4)ccn3)[nH]c2c1 [Example 61.01.01, 3,3,3-trifluoro-1-{4-[(2-{[6-(5-methoxy-6-methylpyrimidin-4-yl)-1H-benzimidazol-2-yl]amino}pyridin-4-yl)methyl]piperazin-1-yl}propan-1-one]  0.0197 µM
18. CC(C)c1cc(-c2ccc3nc(Nc4cc(CN5CCN(C(=O)CC(F)(F)F)CC5)ccn4)[nH]c3c2)ncn1 [Example 78.01, 3,3,3-trifluoro-1-(4-{[2-({6-[6-(propan-2-yl)pyrimidin-4-yl]-1H-benzimidazol-2-yl}amino)pyridin-4-yl]methyl}piperazin-1-yl)propan-1-one]  0.022 µM
19. COc1c(C)ncnc1-c1ccc2nc(Nc3cc(CN4CCN(C(=O)C5CC5)CC4)ccn3)[nH]c2c1 [Example 61.01.02, cyclopropyl{4-[(2-{[6-(5-methoxy-6-methylpyrimidin-4-yl)-1H-benzimidazol-2-yl]amino}pyridin-4-yl)methyl]piperazin-1-yl}methanone]  0.023 µM
20. Cc1nnc(-c2ccc3nc(Nc4cc(CN5CCN(C(=O)C6CC6)CC5)ccn4)[nH]c3c2)o1 [Example 66.01.02, cyclopropyl{4-[(2-{[6-(5-methyl-1,3,4-oxadiazol-2-yl)-1H-benzimidazol-2-yl]amino}pyridin-4-yl)methyl]piperazin-1-yl}methanone]  0.033 µM
21. Cc1nnc(-c2ccc3nc(Nc4cc(CN5CCN(C(=O)OC(C)(C)C)CC5)ccn4)[nH]c3c2)o1 [Example 66.01.01, tert-butyl 4-[(2-{[6-(5-methyl-1,3,4-oxadiazol-2-yl)-1H-benzimidazol-2-yl]amino}pyridin-4-yl)methyl]piperazine-1-carboxylate]  0.0333 µM
22. COc1cnc(OCC2CC2)nc1-c1ccc2nc(Nc3cc(CN4CCN(C(=O)C5CC5)CC4)ccn3)[nH]c2c1 [Example 64.01.02, cyclopropyl(4-{[2-({6-[2-(cyclopropylmethoxy)-5-methoxypyrimidin-4-yl]-1H-benzimidazol-2-yl}amino)pyridin-4-yl]methyl}piperazin-1-yl)methanone]  0.0337 µM
23. COc1cnc(Cl)nc1-c1ccc2nc(Nc3cc(CN4CCN(C(=O)OC(C)(C)C)CC4)ccn3)[nH]c2c1 [Example 63.01.01, tert-butyl 4-[(2-{[6-(2-chloro-5-methoxypyrimidin-4-yl)-1H-benzimidazol-2-yl]amino}pyridin-4-yl)methyl]piperazine-1-carboxylate]  0.0364 µM
24. COc1cnc(OCC2CC2)nc1-c1ccc2nc(Nc3cc(CN4CCN(C(=O)CC(F)(F)F)CC4)ccn3)[nH]c2c1 [Example 64.01.03, 1-(4-{[2-({6-[2-(cyclopropylmethoxy)-5-methoxypyrimidin-4-yl]-1H-benzimidazol-2-yl}amino)pyridin-4-yl]methyl}piperazin-1-yl)-3,3,3-trifluoropropan-1-one]  0.047 µM
25. CC(C)(C)OC(=O)N1CCN(Cc2ccnc(Nc3nc4ccc(-c5ccnc(OCC6CC6)n5)cc4[nH]3)c2)CC1 [Example 62.01.01, tert-butyl 4-{[2-({6-[2-(cyclopropylmethoxy)pyrimidin-4-yl]-1H-benzimidazol-2-yl}amino)pyridin-4-yl]methyl}piperazine-1-carboxylate]  0.0573 µM
26. COc1c(OCC2CC2)ncnc1-c1ccc2nc(Nc3cc(CN4CCN(C(=O)CC(F)(F)F)CC4)ccn3)[nH]c2c1 [Example 65.01.02, 1-(4-{[2-({6-[6-(cyclopropylmethoxy)-5-methoxypyrimidin-4-yl]-1H-benzimidazol-2-yl}amino)pyridin-4-yl]methyl}piperazin-1-yl)-3,3,3-trifluoropropan-1-one]  0.0584 µM
27. COc1cnc(OCC2CC2)nc1-c1ccc2nc(Nc3cc(CN4CCN(C(=O)OC(C)(C)C)CC4)ccn3)[nH]c2c1 [Example 64.01.01, tert-butyl 4-{[2-({6-[2-(cyclopropylmethoxy)-5-methoxypyrimidin-4-yl]-1H-benzimidazol-2-yl}amino)pyridin-4-yl]methyl}piperazine-1-carboxylate]  0.217 µM
28. COc1c(OCC2CC2)ncnc1-c1ccc2nc(Nc3cc(CN4CCN(C(=O)OC(C)(C)C)CC4)ccn3)[nH]c2c1 [Example 65.01.01, tert-butyl 4-{[2-({6-[6-(cyclopropylmethoxy)-5-methoxypyrimidin-4-yl]-1H-benzimidazol-2-yl}amino)pyridin-4-yl]methyl}piperazine-1-carboxylate]  0.255 µM

Reference: patent publication US10894784B2, “Heteroarylbenzimidazole compounds” (BAYER PHARMA AKTIENGESELLSCHAFT, priority 2015, dated 2021)
